Assay results: US20150152469A1, “FLUORESCENT PROBE FOR HIGH-SENSITIVITY PANCREATIC FLUID DETECTION, AND METHOD FOR DETECTING PANCREATIC FLUID” (THE UNIVERSITY OF TOKYO, priority 2012, published 2015)

How the values were obtained:
[1] = target: T1, chymotrypsin (a-chymotrypsin derived from bovine pancreas) (Bos taurus, UniProt P00766); assay: Fluorescence assay using chymotrypsin; assay type: biochemical; settings: 2.4 μM probe, 4.6 U chymotrypsin
T1 construct: a-chymotrypsin derived from bovine pancreas; purchased SIGMA C4129-250MG; host or cells: bovine pancreas
Procedure: 3 μL of a 2.4 mM gPhe-HMRC dimethylsulfoxide (DMSO) solution was dissolved in 3 mL of 0.1 M sodium phosphate buffer (pH 7.4) at a final concentration of 2.4 μM, 4.6 U of chymotrypsin (a-chymotrypsin derived from bovine pancreas: SIGMA C4129-250MG) was added thereto to conduct an enzymatic reaction at 37° C. The excitation wavelength was set to 501 nm.

[2] = tested on: chymotrypsin activities in pancreatic fluid; assay: In vitro fluorescence assay using human pancreatic fluid (gPhe-HMRG); assay type: biochemical
Procedure: (§1) gPhe-HMRG synthesized in Example 1 and gGlu-HMRG, which has a glutamic acid residue, synthesized in Example 2 were used as fluorescent probes to evaluate enzymatic activities of pancreatic fluid obtained from patients of pancreatic cancer or bile duct cancer. 1 μL of a fluorescent probe DMSO solution (1 mM) was dissolved in 180 μL of a 0.1 M sodium phosphate buffer (pH 7.4) at a final concentration of […], 20 μL of a pancreatic fluid was added thereto, and an enzymatic reaction was carried out at 37° C. for 30 minutes. In the case of gPhe-HMRG, a probe solution to which 57 BAEE units of trypsin (bovine pancreas-derived trypsin: SIGMA T1426-100MG) had been added was used to carry out the same enzymatic reaction. In addition, as to inhibitor treatments for comparisons, 1 μL of an aqueous solution (10 mM) of a γ-glutamyltransferase inhibitor (GGs-Top: Wako Pure Chemical 075-05471) in the case of gGlu-HMRG, and 1 μL of a DMSO solution (10 mM) of a chymotrypsin inhibitor (chymostatin: SIGMA C7268) in the case of gPhe-HMRG were each added to probe solutions. For excitation wavelengths and fluorescence wavelengths of a fluorescence measurement device, 478-492 nm and 523-548 nm, respectively, were used.

chymotrypsin = assay: Fluorescence response to drain samples of pancreatic fluid, ascitic fluids and intestinal fluids (gPhe-HMRG, gPhe-HMRG-Try); assay type: biochemical, human
Procedure: (§2) Furthermore, response behaviors of the fluorescent probes against body fluids other than pancreatic fluid were compared by using drain samples which were collected from patients who received resectional surgeries of the pancreas. With respect to a total of 76 samples of pancreatic fluid, ascitic fluids and intestinal fluids which were collected from 18 patients, changes in fluorescent intensities were measured for gGlu-HMRG, gPhe-HMRG, and trypsin-added gPhe-HMRG (gPhe-HMRG-Try).
(§3) 180 μL of a probe solution (1.1 μM) was poured into each well of a 96-well microplate reader (SH-8000, Hitachi), and then, 20 μL of a collected sample was added thereto, followed by mixing them. The sample was incubated at 37° C., and fluorescence responses were measured after 5 minutes, 15 minutes and 30 minutes. Trypsin was added to gPhe-HMRG-Try at a final concentration of 0.525 μBTEE/μL. For an excitation wavelength and a fluorescence wavelength for the fluorescence measurement device, 490 nm and 520 nm, respectively, were used. The obtained results of fluorescence responses are shown as average values of respective samples in FIG. 5.

[3] = Fluorescent imaging of human pancreatic fluid; settings: for visualization of adhesion points of the pancreatic fluids: 50 μM probe solution sprayed on paper (gPhe-HMRG with trypsin), after several minutes from spraying
Procedure: Fluorescent imaging of pancreatic fluids on an excised surface of the pancreas was carried out by using gPhe-HMRG and gGlu-HMRG as fluorescent probes. In consideration of, for example, cases where materials retaining pancreatic fluids, which are measurement subjects, are used during surgeries, wiping towels and filter paper for experiments (those having low background fluorescence from paper itself), which had been used in clinical practice, were used as the materials. For specific procedures, apiece of the pancreas immediately after being excised by surgical operations was collected, the wiping towel and filter paper was adhered to its excised surface, thereby adhering the pancreatic fluid thereto. Then, probe solutions of gPhe-HMRG (including trypsin) and gGlu-HMRG were sprayed to the adhered paper to start imaging. For the probe solutions, 10 μL of a DMSO solution (10 mM) of each probe was dissolved in 2 mL of RPMI 1640 medium (GINBO 11835) at a final concentration of 50 μM, and, for gPhe-HMRG, a solution obtained by adding trypsin (52.6 BTEE units) thereto was used. For an excitation filter and a fluorescence filter, long path filters of 435-480 nm and 490 nm, respectively, were used.

[4] = target: T2, γ-glutamyltransferase activity in a pancreatic fluid (Homo sapiens, UniProt P19440); assay: In vitro fluorescence assay using human pancreatic fluid (gGlu-HMRG); assay type: biochemical; settings: 0.9 μM probe, 37° C., 30 minutes
T2 construct: pancreatic fluid obtained from patients of pancreatic cancer or bile duct cancer; from tissue; host or cells: pancreatic fluid from patients with pancreatic cancer or bile duct cancer
Procedure: as §1

γ-glutamyltransferase = assay: Fluorescence response to drain samples of pancreatic fluid, ascitic fluids and intestinal fluids (gGlu-HMRG); assay type: biochemical, human; settings: drain samples from patients, 37° C., 5, 15, 30 minutes
Procedure: as §2, §3

T2 sequence (P19440 1-380 limits assumed): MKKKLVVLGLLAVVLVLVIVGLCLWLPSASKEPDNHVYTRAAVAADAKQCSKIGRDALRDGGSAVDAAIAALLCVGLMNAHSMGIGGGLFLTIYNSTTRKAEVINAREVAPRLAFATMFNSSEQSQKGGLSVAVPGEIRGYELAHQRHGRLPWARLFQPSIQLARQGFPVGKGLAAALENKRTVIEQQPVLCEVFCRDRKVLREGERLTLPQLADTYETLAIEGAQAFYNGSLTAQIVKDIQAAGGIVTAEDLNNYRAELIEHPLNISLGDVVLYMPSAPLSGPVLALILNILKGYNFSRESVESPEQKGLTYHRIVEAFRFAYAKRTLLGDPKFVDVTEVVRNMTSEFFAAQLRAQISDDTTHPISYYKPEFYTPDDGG
T2 sequence (P19440 381-569 limits assumed): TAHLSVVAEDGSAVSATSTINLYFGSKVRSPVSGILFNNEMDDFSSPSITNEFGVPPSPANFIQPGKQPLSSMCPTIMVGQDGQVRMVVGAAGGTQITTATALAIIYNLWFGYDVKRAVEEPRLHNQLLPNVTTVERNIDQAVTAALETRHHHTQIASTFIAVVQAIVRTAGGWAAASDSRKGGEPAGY

Row | change in absorption by chymotrypsin addition ([1]; 0.1 M sodium phosphate buffer pH 7.4, 37° C.) | change in fluorescent intensity by chymotrypsin addition ([1]; pH 7.4, 37° C., excitation 501 nm) | time until fluorescent intensity reached saturation after chymotrypsin addition ([1]; fluorescence at 524 nm, 37° C.) | fluorescent intensity when γ-glutamyltransferase-specific inhibitor (GGs-Top) was added ([4]; pancreatic fluid, inhibitor added) | Substance | change in fluorescent intensity by addition of pancreatic fluid sample, trypsin included ([2]; 0.9 μM probe, 57 BAEE units trypsin, pancreatic fluid samples No. 1 to No. 5, 37° C., 30 minutes) | fluorescence response against chymotrypsinogen (precursor) ([2]; pancreatic fluid without trypsin addition) | fluorescent intensity when chymostatin (chymotrypsin inhibitor) was added ([2]; pancreatic fluid, trypsin, chymostatin added, 37° C., 30 minutes) | fluorescent response to body fluids, trypsin not added (chymotrypsin; pancreatic fluid, ascitic fluids, intestinal fluids from patients, 37° C., 5, 15, 30 minutes) | fluorescence response compared with gGlu-HMRG (chymotrypsin; trypsin added) | visualization of adhesion points of the pancreatic fluids [3] | fluorescence response at adhesion points of body fluids other than the pancreatic fluid ([3]; 50 μM probe with trypsin sprayed on paper) | change in fluorescent intensity by addition of pancreatic fluid sample ([4]; 20 μL pancreatic fluid (samples No. 1 to No. 5), no inhibitor) | fluorescent response to ascitic fluids (γ-glutamyltransferase) | fluorescent response to pancreatic fluids (γ-glutamyltransferase) | fluorescent response to intestinal fluids (γ-glutamyltransferase; compared with pancreatic fluids)
1 | significant increases | significant increases | about 600 seconds | – | glutamyl-phenylalanine hydroxymethyl rhodamine green [gPhe-HMRG] | remarkable increases in fluorescent intensities were observed in all the pancreatic fluid samples | hardly showed a fluorescence response | significantly decreased | significant fluorescent responses were not observed for all the body fluids | superior | successfully accomplished | any fluorescence response was not observed | – | – | – | –
2 | – | – | – | significantly decreased | γ-glutamyl hydroxymethyl rhodamine green [gGlu-HMRG] | – | – | – | – | – | successfully accomplished | – | increases in fluorescent intensities were observed in all pancreatic fluid samples | increases in fluorescent intensities were observed | an increase in fluorescent intensities was observed | a larger increase in fluorescent intensities was observed for intestinal fluids, than for the case of pancreatic fluids
